This note sets out measurements from ChEMBL document CHEMBL1123075, “Opioid agonists and antagonists. 6-Desoxy-6-substituted lactone, epoxide, and glycidate ester derivatives of naltrexone and oxymorphone” (J Med Chem, 1985).

The target in assay [1] is T1, Opioid receptor (Rattus norvegicus, UniProt P33533+P34975+P33535). Nature of the assay: In vitro opioid receptor binding competition against 1 nM [3H]- Naltrexone in the absence of NaCl. Format: protein assay.
For assay [2], the target named is T1, Opioid receptor. Nature of the assay: In vitro opioid receptor binding competition against 1 nM [3H]- Naltrexone in the presence of 100 mM NaCl. Format: protein assay.
Assay [3] has as its target Opioid receptor (Rattus norvegicus) (UniProt P33533+P34975+P33535). Nature of the assay: Ratio of IC50 value in presence of NaCl to that of NaCl absence against opioid receptor. Format: protein assay.
Assay [4] in a line: Activity against specific binding of [3H]naltrxone at dose 200 nM & at 25 degree C in the absence of Na+ ion (unwashed ).
Assay [5] can be described thus: Activity against specific binding of [3H]naltrxone at dose 200 nM & at 25 degree C in the absence of Na+ ion (washed).
A short description of assay [6]: Activity against specific binding of [3H]-naltrxone at dose 200 nM & at 25 degree C in the presence of Na+ ion (unwashed ).
Assay [7] in a line: Activity against specific binding of [3H]naltrxone at dose 200 nM & at 25 degree C in the presence of Na+ ion (washed).
A short description of assay [8]: Activity against specific binding of [3H]naltrxone at dose 500 nM & at 37 degree C in the presence of Na+ ion (unwashed ).
A short description of assay [9]: Activity against specific binding of [3H]naltrxone at dose 500 nM & at 37 degree C in the presence of Na+ ion(washed).
A short description of assay [10]: Activity against specific binding of [3H]naltrxone at dose 75 nM & at 37 degree C in the absence of Na+ ion (unwashed ).
Assay [11] is described as follows: Activity against specific binding of [3H]naltrxone at dose 75 nM & at 37 degree C in the absence of Na+ ion (washed).

Where only a bound is given, the exact number is not on record here.

As for `CC1CC2(CCC3(O)[C@H]4Cc5ccc(O)c6c5[C@@]3(CCN4CC3CC3)C2O6)OC1=O` (stereo partly specified), the IC50 on Opioid receptor [1] turned out to be 10 nM; at Opioid receptor [2] it was 6 nM. Further, the Ratio in assay [3] amounted to 0.6.

On to `C=C1C(=O)OC2=C1CC1(O)[C@H]3Cc4ccc(O)c5c4[C@@]1(CCN3CC1CC1)C2O5` (stereo partly specified), for which the 50% inhibitory concentration (IC50) on Opioid receptor [1] stood at 100 nM; at Opioid receptor [2], 50 nM. In addition, the Ratio in [3] came out at 0.5.

For `Oc1ccc2c3c1OC1C4(CCC5(O)[C@@H](C2)N(CC2CC2)CC[C@]315)CO4` (stereo in doubt; 13a) [listing 1 of 2 here], the IC50 at Opioid receptor [1] came to 5.1 nM; on Opioid receptor [2] it was 3.4 nM.

As to `CC1CC2(CCC3(O)C4Cc5ccc(O)c6c5[C@@]3(CCN4C)C2O6)OC1=O` (stereo partly specified), the IC50 on Opioid receptor [1] is listed as 30 nM; on Opioid receptor [2], 500 nM. Besides, the Ratio in [3] amounted to 16.7.

Take `Oc1ccc2c3c1OC1C4(CCC5(O)[C@@H](C2)N(CC2CC2)CC[C@]315)CO4` (stereo in doubt; 12a) [listing 1 of 2 here]: the IC50 on Opioid receptor [1] came out at 4 nM; on Opioid receptor [2], 2 nM.

At Opioid receptor [1], `CCOC(=O)[C@@H]1OC12CCC1(O)[C@H]3Cc4ccc(O)c5c4[C@@]1(CCN3CC1CC1)C2O5` (stereo partly specified) registered an IC50 of 6 nM. Besides, in assay [3], the Ratio was 1.

Consider `CCOC(=O)[C@H]1OC12CCC1(O)[C@H]3Cc4ccc(O)c5c4[C@@]1(CCN3CC1CC1)C2O5` (stereo partly specified), for which the results for the IC50 at Opioid receptor [1] and at Opioid receptor [2] were 2.3 nM and 3.5 nM, respectively. Besides, in assay [3], the Ratio worked out at 1.5.

`Oc1ccc2c3c1OC1C4(CCC5(O)[C@@H](C2)N(CC2CC2)CC[C@]315)CO4` (stereo in doubt; 13a) [listing 2 of 2 here]: the Ratio in [3] was found to be 0.6.

In the case of `CCOC(=O)[C@@H]1OC12CCC1(O)C3Cc4ccc(O)c5c4[C@@]1(CCN3C)C2O5` (stereo partly specified), the IC50 was 15 nM on Opioid receptor [1] and 200 nM at Opioid receptor [2]. Also, the Ratio in assay [3] was determined as 13.3.

Turning to `C=C1CC2(CCC3(O)[C@H]4Cc5ccc(O)c6c5[C@@]3(CCN4CC3CC3)C2O6)OC1=O` (stereo in doubt; 6a) [listing 1 of 2 here], the Ratio in [3] was determined as 1.2.

For `CCOC(=O)[C@H]1OC12CCC1(O)C3Cc4ccc(O)c5c4[C@@]1(CCN3C)C2O5` (stereo partly specified), the IC50 at Opioid receptor [1] is listed as 70 nM; at Opioid receptor [2], 1000 nM. In addition, in assay [3], the Ratio was 14.2.

As for `CN1CC[C@]23c4c5ccc(O)c4OC2C2(CCC3(O)C1C5)CO2` (stereo partly specified), the IC50 is listed as 8 nM on Opioid receptor [1] and 60 nM at Opioid receptor [2]. In addition, the Ratio in assay [3] was determined as 7.5.

As to `C=C1CC2(CCC3(O)[C@H]4Cc5ccc(O)c6c5[C@@]3(CCN4C)C2O6)OC1=O` (stereo in doubt; 6b) [listing 1 of 2 here], the IC50 worked out at 125 nM at Opioid receptor [1] and 880 nM at Opioid receptor [2].

Turning to `CC1=CC2(CCC3(O)[C@H]4Cc5ccc(O)c6c5[C@@]3(CCN4CC3CC3)C2O6)OC1=O` (stereo partly specified), the 50% inhibitory concentration (IC50) at Opioid receptor [1] was 40 nM; on Opioid receptor [2] it was 70 nM. In assay [3], the Ratio is 1.8.

Regarding `CC1=CC2(CCC3(O)C4Cc5ccc(O)c6c5[C@@]3(CCN4C)C2O6)OC1=O` (stereo partly specified), the results for the IC50 at Opioid receptor [1] and on Opioid receptor [2] were 200 nM and greater than 1000 nM, respectively. In addition, the Ratio in assay [3] was greater than 5.

`C=C1CC2(CCC3(O)[C@H]4Cc5ccc(O)c6c5[C@@]3(CCN4CC3CC3)C2O6)OC1=O` (stereo in doubt; 6a) [listing 2 of 2 here]: the values for the IC50 at Opioid receptor [1] and on Opioid receptor [2] were 12.5 nM and 15 nM, respectively.

In the case of `C=C1CC2(CCC3(O)[C@H]4Cc5ccc(O)c6c5[C@@]3(CCN4C)C2O6)OC1=O` (stereo in doubt; 6b) [listing 2 of 2 here], the Ratio in assay [3] amounted to 7.

For the compound `C=C1CC2(CCC3(O)[C@H]4Cc5ccc(O)c6c5[C@@]3(CCN4CC3CC3)C2O6)OC1=O` (stereo in doubt; 5a) [listing 1 of 2 here], the concentration for half-maximal inhibition (IC50) is 5 nM on Opioid receptor [1] and 2 nM at Opioid receptor [2].

Consider `O=C1C=CC2(CCC3(O)[C@H]4Cc5ccc(O)c6c5[C@@]3(CCN4CC3CC3)C2O6)O1` (stereo partly specified), for which the IC50 at Opioid receptor [1] and on Opioid receptor [2] was 10 nM in each case. Further, the Ratio in assay [3] worked out at 1.

As for `C=C1CC2(CCC3(O)[C@H]4Cc5ccc(O)c6c5[C@@]3(CCN4C)C2O6)OC1=O` (stereo in doubt; 5b) [listing 1 of 2 here], the IC50 is on record as 35 nM on Opioid receptor [1] and 250 nM on Opioid receptor [2].

As to `C=C1CC2(CCC3(O)[C@H]4Cc5ccc(O)c6c5[C@@]3(CCN4CC3CC3)C2O6)OC1=O` (stereo in doubt; 5a) [listing 2 of 2 here], in [3], the Ratio was 0.4.

As for `C=C1CC2(CCC3(O)[C@H]4Cc5ccc(O)c6c5[C@@]3(CCN4C)C2O6)OC1=O` (stereo in doubt; 5b) [listing 2 of 2 here], the Control in assay [4] is 35%; in [5], 79%; in assay [6], 43%; in assay [7], 63%; in [8] it was 34%; in [9] it was 56%. The Control in assay [10] is 66%; in assay [11], 97%. In addition, in assay [3], the Ratio was determined as 7.

In the case of `Oc1ccc2c3c1OC1C4(CCC5(O)[C@@H](C2)N(CC2CC2)CC[C@]315)CO4` (stereo in doubt; 12a) [listing 2 of 2 here], in [3], the Ratio was found to be 0.5.

Take `C=C1C(=O)OC2C1CC1(O)[C@H]3Cc4ccc(O)c5c4[C@@]1(CCN3CC1CC1)C2O5` (stereo partly specified): the values for the IC50 on Opioid receptor [1] and on Opioid receptor [2] were 10 nM and 7 nM, respectively. Moreover, the Ratio in assay [3] was 0.7.

The term IC50 denotes the concentration at which inhibition is half-maximal.
